Experimental data reported in PubChem BioAssay (NCI).
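Results reflect a 48-hour exposure of cells in 96-well plates to compound at five concentrations. GI50 = concentration required for 50% inhibition of growth. TGI is the concentration that stops growth completely.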

Experiments:
Test in all cases: NCI tumour cell line growth inhibition, 48 h
A498 renal = tested on: A498 renal
ACHN renal = tested on: ACHN renal
EKVX NSCLC = tested on: EKVX NSCLC
HOP-62 NSCLC = tested on: HOP-62 NSCLC
NCI-H23 lung = tested on: NCI-H23 lung
SK-OV-3 ovarian = tested on: SK-OV-3 ovarian
SNB-75 CNS = tested on: SNB-75 CNS
SR leukemia = tested on: SR leukemia
UACC-257 melanoma = tested on: UACC-257 melanoma
SK-MEL-2 melanoma = tested on: SK-MEL-2 melanoma

SMILES	TGI (A498 renal) [µM]	TGI (ACHN renal) [µM]	TGI (EKVX NSCLC) [µM]	TGI (HOP-62 NSCLC) [µM]	TGI (NCI-H23 lung) [µM]	TGI (SK-OV-3 ovarian) [µM]	TGI (SNB-75 CNS) [µM]	TGI (SR leukemia) [µM]	TGI (UACC-257 melanoma) [µM]	TGI (SK-MEL-2 melanoma) [µM]	GI50 (A498 renal) [µM]	GI50 (ACHN renal) [µM]	GI50 (SK-OV-3 ovarian) [µM]	GI50 (SNB-75 CNS) [µM]	GI50 (SR leukemia) [µM]	GI50 (NCI-H23 lung) [µM]	GI50 (SK-MEL-2 melanoma) [µM]	GI50 (UACC-257 melanoma) [µM]
COc1cc(CNC(=S)CCCCCCCCCCC(C)C)ccc1O	> 100	> 100	> 100	> 100	> 100	> 100	> 100	> 100	> 100									
CCOC(=O)CCC(NC(=O)OCc1ccccc1)C(=O)NC(CCC(=O)OCC)C(=O)NC(CCC(=O)OCC)C(=O)NNC(=O)OC(C)(C)C (stereo unspecified)	> 100	> 100	> 100	> 100	> 100		> 100	> 100	> 100	> 100								
CC(C)(Cc1ccccc1)N1C(=O)N1C(C)(C)Cc1ccccc1	> 100		> 100		65.5	> 100	> 100	> 100	> 100	48.4								
Cc1nc2cccc(F)c2c(=O)n1-c1nnc(C(F)(F)F)s1		> 10	> 10	> 10	> 10	> 10	> 10	> 10	> 10	> 10								
CCN(CC)/[N+]([O-])=N/O	> 100	> 100	> 100	> 100	> 100	> 100		> 100	> 100	> 100								
CCN(CCCl)c1cccc(NC(=O)c2ccc(C(=O)Nc3cccc(CN(C)C)c3)cc2)c1	0.502	0.624		6.14	1.15	4.13	0.759	27.3	0.304	0.0856								
CC(C#N)N(CCc1ccccc1)C(=O)c1ccccc1 (stereo unspecified)	> 100	> 100	> 100	> 100	> 100	> 100	> 100	> 100	> 100	> 100								
NNC(=O)Cn1ccnn1		> 100	> 100	> 100	> 100		> 100	> 100	> 100	> 100								
COC(=O)c1cc(C)ccc1C1CN=NC12Cc1c(C)cc(C)cc1C2=O (stereo unspecified)		> 100	> 100	> 100	50.4	69	66.8		69.7	33.1								
CCN(CC)C1Oc2cc3c(cc2C(c2cc(OC)c(OC)c(OC)c2)C1C)OCO3 (stereo unspecified)	6.65	> 38.7	> 75.5	12.9	> 49	> 61.7	> 69.9	5.01	> 100	11.7								
COc1cccc(NC(=O)CC(=O)N2N=C(C)C(N=Nc3ccc(C(=O)O)cc3)C2=O)c1 (stereo unspecified)		> 100	> 100	> 100	> 100		45.1	> 100	> 100	> 100								
C=C(C)[C@@H]1CC[C@]2(CO)CC[C@]3(C)[C@H](CC[C@@H]4[C@@](C)(CCCN)[C@H](C(=C)C)CC[C@]43C)[C@@H]12	3.15	3.21				3.18	2.82	2.14			1.74	1.82	1.71	1.48	0.475			
NC1c2c(Cl)sc(Cl)c2C(=O)C1O (stereo unspecified)	> 100	99.6	57.6		32.5	> 100	> 100		> 100	> 100								
CC(=O)O[C@H]1CCC2[C@@H]3CCC4NC(=O)C(C#N)C[C@]4(C)C3CC[C@@]21C (stereo partly specified)	> 10	> 10	> 10	> 10	> 10	> 10		> 10	> 10	> 10								
Cc1c(C#N)c(=N)oc2ccccc12	> 100	> 100	> 100	> 100	> 100	> 100	> 100		> 100	> 100								
C[PH+](c1nc2ccccc2nc1[PH+](C)C(C)(C)C)C(C)(C)C.C[PH+](c1nc2ccccc2nc1[PH+](C)C(C)(C)C)C(C)(C)C.[Au+].[Cl-] (stereo unspecified)	0.445	0.835			0.104	0.117	1.34		0.278	0.0986	0.0263	0.113	0.0293	0.0224		0.0261	0.0318	0.0359
COC(=O)c1cc(C)ccc1/C=C1\Cc2c(C)cc(C)cc2C1=O	76.4	> 100	> 88.4	32.4	> 72.3		35.5	> 100	> 30.1	63.7								
Clc1nc2c(C#Cc3ccccc3)ncnc2n1C1CCCCO1 (stereo unspecified)		30.9	12.4	> 100	33.5	> 100	> 100	24.1	41.1	31.5								
COc1cccc(C23CCCC(C2)N(C)CC3OC(=O)c2ccccc2)c1OC (stereo unspecified)	> 100	> 100	72.7	> 100	44.6	97.7		40.9	> 100	> 100								
N#Cc1c(N2CCN(c3ccc([N+](=O)[O-])cc3)CC2)[n+](=O)c2ccc(-c3ccc([N+](=O)[O-])cc3)cc2n1[O-]	> 100	> 100	> 100	23.8	> 100	> 100	> 100		> 100	> 100								
COc1cc(S(=O)(=O)Nc2ccc(-c3csc(/N=C\c4ccccc4)n3)cc2)ccc1Cl	> 100	> 100	> 100	> 100	> 100	> 100	> 100	> 100		60.6								
NC(=S)NNC(=S)NC(=O)c1ccco1		> 10	> 10	> 10	> 10	> 10	> 10	> 10	> 10	> 10								
